Laboratory results taken from patent US20250326748A1, “COMPOUNDS AND METHODS FOR MODULATING SPLICING” (REMIX THERAPEUTICS INC., priority 2022, published 2025).
Like-named read-outs stand apart in the source and are kept apart here.

Tests used:
MYB mRNA = assay: Splicing RT-qPCR assay, MYB canonical (CJ) and alternative (AJ) junction mRNA; format: cell-based, human; settings: Homo sapiens; for IC50: canonical junction mRNA; for AC50: alternative junction mRNA, read-out: MYB AJ (AC50, increase in AJ mRNA)
Procedure, shortened: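 Read-out: one-step RT-qPCR on crude lysates measuring exon-exon junction isoforms, CJ for the canonical transcript and AJ for compound-induced exon inclusion. Normalization used PPIA for adherent A673 and GAPDH or GUSB for K562. Cells received 11 doses, 3-fold apart, top 10 uM, for 24 h.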

SMN2 mRNA = assay: Splicing RT-qPCR panel, SMN2 canonical junction (CJ) mRNA; format: cell-based, human; settings: Homo sapiens, read-out: SMN2 CJ (decrease in CJ mRNA levels, IC50)
Procedure, shortened: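 A673 cells (DMEM, 10% FBS) or K562 cells (IMDM, 10% FBS) treated 24 h at 37 °C with an 11-point 3-fold dilution, top 10 uM, DMSO ≤0.25%. Canonical-junction mRNA quantified in lysates by RT-qPCR, normalised to GAPDH, GUSB or PPIA and to DMSO (2^−ΔΔCt), then converted to % response.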

K562 cells = assay: Cell viability, Cell Titer Glo 2.0 assay, K562; settings: 72 hours
[1] = qPCR panel, read-out: MYB CJ (decrease in CJ mRNA levels, IC50)
[2] = RT-qPCR, A673 or K562 cells, 24 hours treatment
[3] = RT-qPCR, A673 or K562 cells, 24 hours treatment, read-out: MYB CJ (IC50, decrease in CJ mRNA)

SMILES	IC50 (MYB mRNA; [1]) [nM]	AC50 (MYB mRNA; [2]) [nM]	IC50 (MYB mRNA; [3]) [nM]	IC50 (SMN2 mRNA) [nM]	Effect on Cell Viability, K562 (K562 cells)
Cn1cc2cc(-c3ccc4cc(N5CC[C@H](NC(C)(C)C)C5)cnc4n3)c(O)cc2n1 (single isomer, unassigned) [Compound 200]	100 to 1000	100 to 1000	100 to 1000	< 100	B (100-1000 nM)
CNC1CCN(c2cnc3nc(-c4cc(F)c5nc(C)cn5c4)ccc3c2)C1 (stereo not shown) [Compound 100, 1-(7-{8-fluoro-2-methylimidazo[1,2-a]pyridin-6-yl}-1,8-naphthyridin-3-yl)-N-methylpyrrolidin-3-amine]	< 100	< 100	< 100	< 100	B (100-1000 nM)
Cn1cc2cc(-c3cnc4nc(N5CCNCC5)cc(Cl)c4c3)cc(F)c2n1 [Compound 101, 4-chloro-6-(7-fluoro-2-methyl-2H-indazol-5-yl)-2-(piperazin-1-yl)-1,8-naphthyridine]	100 to 1000	< 100	100 to 1000	< 100	B (100-1000 nM)
Cn1cc2cc(-c3cc(Cl)c4cc(N5CCNCC5)cnc4n3)c(O)cc2n1 [Compound 102, 5-[4-chloro-6-(piperazin-1-yl)-1,8-naphthyridin-2-yl]-2-methylindazol-6-ol]	< 100	< 100	< 100	< 100	B (100-1000 nM)
Cn1cc2cc(-c3cc(Cl)c4cc(N5CCNCC5)cnc4n3)cc(F)c2n1 [Compound 103]	< 100	< 100	< 100	< 100	B (100-1000 nM)
Cc1c(O)c(-c2cc(Cl)c3cc(N4CCNCC4)cnc3n2)cc2cn(C)nc12 [Compound 154, 5-[4-chloro-6-(piperazin-1-yl)-1,8-naphthyridin-2-yl]-2,7-dimethylindazol-6-ol]	< 100	< 100	< 100	< 100	A (<100 nM)
Cn1cc2cc(-c3cc(Cl)c4cc(N5CCNCC5)cnc4n3)c(O)c(F)c2n1 [Compound 155, 5-[4-chloro-6-(piperazin-1-yl)-1,8-naphthyridin-2-yl]-7-fluoro-2-methylindazol-6-ol]	< 100	< 100	< 100	< 100	A (<100 nM)
Cc1c(O)c(-c2ncc3cc(N4CC[C@@H](N)C4)cnc3n2)cc2cn(C)nc12 [Compound 159, (R)-5-(6-(3-aminopyrrolidin-1-yl)pyrido[2,3-d]pyrimidin-2-yl)-2,7-dimethyl-2H-indazol-6-ol 2,2,2-trifluoroacetate]	< 100	< 100	< 100	< 100	B (100-1000 nM)
Cc1c(O)c(-c2ncc3cc(N4CC[C@H](N)C4)cnc3n2)cc2cn(C)nc12 [Compound 160, (S)-5-(6-(3-aminopyrrolidin-1-yl)pyrido[2,3-d]pyrimidin-2-yl)-2,7-dimethyl-2H-indazol-6-ol 2,2,2-trifluoroacetate]	< 100	< 100	< 100	< 100	B (100-1000 nM)
CNC1CCN(c2cnc3nc(-c4cc5cn(C)nc5c(C)c4O)nc(OC)c3c2)C1 (stereo not shown) [Compound 161, 5-{4-methoxy-6-[3-(methylamino)pyrrolidin-1-yl]pyrido[2,3-d]pyrimidin-2-yl}-2,7-dimethylindazol-6-ol]	< 100	< 100	< 100	< 100	
COc1nc(-c2cc3cn(C)nc3c(C)c2O)nc2ncc(N3CCNCC3)cc12 [Compound 162, 5-[4-methoxy-6-(piperazin-1-yl)pyrido[2,3-d]pyrimidin-2-yl]-2,7-dimethylindazol-6-ol]	< 100	< 100	< 100	< 100	
COc1nc(-c2cc3cn(C)nc3c(C)c2O)nc2ncc(N3CCC(N(C)C)CC3)cc12 [Compound 163, 5-{6-[4-(dimethylamino)piperidin-1-yl]-4-methoxypyrido[2,3-d]pyrimidin-2-yl}-2,7-dimethylindazol-6-ol]	100 to 1000	100 to 1000	100 to 1000	< 100	B (100-1000 nM)
Cn1cc2cc(-c3cnc4cc(N5CCC(NC6CC6)C5)ccc4n3)c(O)c(F)c2n1 (stereo not shown) [Compound 175, 5-[6-[3-(cyclopropylamino)pyrrolidin-1-yl]quinoxalin-2-yl]-7-fluoro-2-methyl-indazol-6-ol]	< 100	< 100	< 100	< 100	A (<100 nM)
Cn1cc2cc(-c3cnc4cc(N5CC[C@H](NC6CC6)C5)ccc4n3)c(O)c(F)c2n1 [Compound 176, 5-[6-[(3S)-3-(cyclopropylamino)318quinoxaline-1-yl]318quinoxaline-2-yl]-7-fluoro-2-methyl-indazol-6-ol]	< 100	< 100	< 100	< 100	A (<100 nM)
Cn1cc2cc(-c3cnc4cc(N5CC[C@@H](NC6CC6)C5)ccc4n3)c(O)c(F)c2n1 [Compound 177, 5-[6-[(3R)-3-(cyclopropylamino)318quinoxaline-1-yl]318quinoxaline-2-yl]-7-fluoro-2-methyl-indazol-6-ol]	< 100	< 100	< 100	< 100	A (<100 nM)
Cn1cc2cc(-c3cnc4nc(N5CCC(NC6CC6)C5)ccc4n3)c(O)c(F)c2n1 (stereo not shown) [Compound 178, 5-[6-[3-(cyclopropylamino)pyrrolidin-1-yl]pyrido[2,3-b]pyrazin-2-yl]-7-fluoro-2-methyl-indazol-6-ol]	< 100	100 to 1000	< 100	< 100	B (100-1000 nM)
CNC1CCN(c2cnc3nc(-c4cc5cn(C)nc5c(C)c4O)cc(Cl)c3n2)C1 (stereo not shown) [Compound 193, 5-{8-chloro-2-[3-(methylamino)355pyrrolidine-1-yl]pyrido[2,3-b]pyrazin-6-yl}-2,7-dimethylindazol-6-ol]	< 100	< 100	< 100	< 100	
CNC1CCN(c2cnc3nc(-c4cc5cn(C)nc5c(C)c4O)cc(OC)c3n2)C1 (stereo not shown) [Compound 194, 5-{8-methoxy-2-[3-(methylamino)360pyrrolidine-1-yl]pyrido[2,3-b]pyrazin-6-yl}-2,7-dimethylindazol-6-ol]	1000 to 10000	1000 to 10000	1000 to 10000	100 to 1000	
Cn1cc2cc(-c3ccc4cc(N5CC[C@@H](NC(C)(C)C)C5)cnc4n3)c(O)cc2n1 [Compound 199]	1000 to 10000	1000 to 10000	1000 to 10000	100 to 1000	
Cc1cn2nc(-c3ccc4cc(N(C)C5CCNCC5)cnc4n3)cc(C)c2n1 [Compound 205, 7-{2,8-dimethylimidazo[1,2-b]pyridazin-6-yl}-N-methyl-N-(piperidin-4-yl)-1,8-naphthyridin-3-amine]	1000 to 10000	1000 to 10000	1000 to 10000	100 to 1000	
